Laboratory results as given in ChEMBL document CHEMBL3991601, “The target landscape of clinical kinase drugs” (Science, 2017).
Activity calls are given as the source filed them.

Columns and labels:
[1] = target: ATP-dependent RNA helicase DDX3X (Homo sapiens, UniProt O00571)
[2] = target: Serine/threonine-protein kinase SIK2 (Homo sapiens, UniProt Q9H0K1)
[3] = target: AP2-associated protein kinase 1 (Homo sapiens, UniProt Q2M2I8)
[4] = target: TGF-beta receptor type-2 (Homo sapiens, UniProt P37173)
[5] = target: T1, Exosome RNA helicase MTR4 (Homo sapiens, UniProt P42285)
T1 sequence (P42285 whole entry): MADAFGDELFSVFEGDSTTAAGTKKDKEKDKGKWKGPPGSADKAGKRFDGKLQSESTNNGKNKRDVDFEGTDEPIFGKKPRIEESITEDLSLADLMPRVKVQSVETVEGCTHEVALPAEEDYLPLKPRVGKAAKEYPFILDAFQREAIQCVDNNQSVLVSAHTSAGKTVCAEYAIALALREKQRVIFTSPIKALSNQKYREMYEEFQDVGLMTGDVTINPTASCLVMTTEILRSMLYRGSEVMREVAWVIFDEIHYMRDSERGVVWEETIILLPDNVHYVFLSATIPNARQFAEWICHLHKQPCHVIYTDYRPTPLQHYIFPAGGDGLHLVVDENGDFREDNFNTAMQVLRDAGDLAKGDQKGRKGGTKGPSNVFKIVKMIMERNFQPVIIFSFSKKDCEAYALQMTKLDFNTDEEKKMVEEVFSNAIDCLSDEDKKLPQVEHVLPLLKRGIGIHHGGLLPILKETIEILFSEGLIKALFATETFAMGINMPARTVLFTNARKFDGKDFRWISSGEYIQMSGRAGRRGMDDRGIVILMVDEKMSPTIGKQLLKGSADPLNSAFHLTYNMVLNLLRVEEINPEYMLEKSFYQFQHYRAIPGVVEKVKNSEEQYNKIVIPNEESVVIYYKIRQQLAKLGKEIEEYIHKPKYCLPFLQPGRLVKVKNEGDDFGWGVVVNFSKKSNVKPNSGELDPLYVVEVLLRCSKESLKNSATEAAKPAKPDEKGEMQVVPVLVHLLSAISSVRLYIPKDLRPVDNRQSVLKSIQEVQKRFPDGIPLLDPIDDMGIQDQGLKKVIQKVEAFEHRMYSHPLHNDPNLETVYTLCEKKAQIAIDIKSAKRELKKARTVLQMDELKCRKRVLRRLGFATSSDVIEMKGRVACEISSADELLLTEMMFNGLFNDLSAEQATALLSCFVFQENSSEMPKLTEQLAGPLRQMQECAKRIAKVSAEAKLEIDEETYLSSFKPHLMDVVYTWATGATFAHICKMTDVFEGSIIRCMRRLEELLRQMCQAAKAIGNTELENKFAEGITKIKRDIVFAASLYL

[6] = target: T2, Membrane-associated tyrosine- and threonine-specific cdc2-inhibitory kinase (Homo sapiens, UniProt Q99640)
T2 sequence (Q99640 whole entry): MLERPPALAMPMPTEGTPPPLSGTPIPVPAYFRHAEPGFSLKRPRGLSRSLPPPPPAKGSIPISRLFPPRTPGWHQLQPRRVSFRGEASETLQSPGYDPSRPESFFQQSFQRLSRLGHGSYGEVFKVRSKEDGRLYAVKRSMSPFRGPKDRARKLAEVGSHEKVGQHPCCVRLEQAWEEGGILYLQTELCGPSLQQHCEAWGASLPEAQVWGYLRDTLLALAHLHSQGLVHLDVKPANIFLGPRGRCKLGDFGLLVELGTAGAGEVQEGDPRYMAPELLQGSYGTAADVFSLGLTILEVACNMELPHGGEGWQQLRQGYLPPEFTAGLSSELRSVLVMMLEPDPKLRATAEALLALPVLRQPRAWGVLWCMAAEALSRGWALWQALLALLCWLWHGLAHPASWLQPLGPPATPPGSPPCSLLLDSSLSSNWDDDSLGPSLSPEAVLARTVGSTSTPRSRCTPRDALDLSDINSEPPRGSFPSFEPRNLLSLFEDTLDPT

[7] = target: cAMP-dependent protein kinase catalytic subunit gamma (Homo sapiens, UniProt P22612)
[8] = target: Myosin-10 (Homo sapiens, UniProt P35580)
[9] = target: Mitogen-activated protein kinase 1 (Homo sapiens, UniProt P28482)
[10] = target: Cyclin-dependent kinase 12 (Homo sapiens, UniProt Q9NYV4)
[11] = target: Insulin receptor (Homo sapiens, UniProt P06213)
[12] = target: Tyrosine-protein kinase BTK (Homo sapiens, UniProt Q06187)
[13] = target: Casein kinase II subunit alpha' (Homo sapiens, UniProt P19784)
[14] = target: LIM domain kinase 1 (Homo sapiens, UniProt P53667)
Further: in the data inactive means no Kd found up to 30 µM.

Chain of Insulin receptor (P06213 28-758 limits assumed): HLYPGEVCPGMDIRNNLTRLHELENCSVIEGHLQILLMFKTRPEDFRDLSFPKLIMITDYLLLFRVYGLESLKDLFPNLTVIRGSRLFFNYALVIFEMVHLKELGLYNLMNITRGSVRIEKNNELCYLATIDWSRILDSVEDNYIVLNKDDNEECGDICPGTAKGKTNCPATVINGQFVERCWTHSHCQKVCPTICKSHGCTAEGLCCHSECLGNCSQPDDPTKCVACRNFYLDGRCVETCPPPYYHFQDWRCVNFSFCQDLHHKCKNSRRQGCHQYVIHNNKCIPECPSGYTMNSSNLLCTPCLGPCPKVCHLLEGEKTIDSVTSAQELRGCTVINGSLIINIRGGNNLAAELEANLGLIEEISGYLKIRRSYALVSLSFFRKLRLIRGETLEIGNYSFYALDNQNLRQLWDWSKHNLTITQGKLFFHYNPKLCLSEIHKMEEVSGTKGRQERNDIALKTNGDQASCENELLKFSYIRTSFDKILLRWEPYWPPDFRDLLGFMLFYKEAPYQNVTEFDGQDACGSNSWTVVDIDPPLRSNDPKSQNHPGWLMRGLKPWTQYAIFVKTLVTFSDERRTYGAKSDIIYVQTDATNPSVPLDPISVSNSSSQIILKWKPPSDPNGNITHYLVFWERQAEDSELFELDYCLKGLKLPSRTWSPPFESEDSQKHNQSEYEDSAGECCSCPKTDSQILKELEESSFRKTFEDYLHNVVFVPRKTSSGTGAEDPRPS
Chain of Insulin receptor (P06213 763-1382 limits assumed): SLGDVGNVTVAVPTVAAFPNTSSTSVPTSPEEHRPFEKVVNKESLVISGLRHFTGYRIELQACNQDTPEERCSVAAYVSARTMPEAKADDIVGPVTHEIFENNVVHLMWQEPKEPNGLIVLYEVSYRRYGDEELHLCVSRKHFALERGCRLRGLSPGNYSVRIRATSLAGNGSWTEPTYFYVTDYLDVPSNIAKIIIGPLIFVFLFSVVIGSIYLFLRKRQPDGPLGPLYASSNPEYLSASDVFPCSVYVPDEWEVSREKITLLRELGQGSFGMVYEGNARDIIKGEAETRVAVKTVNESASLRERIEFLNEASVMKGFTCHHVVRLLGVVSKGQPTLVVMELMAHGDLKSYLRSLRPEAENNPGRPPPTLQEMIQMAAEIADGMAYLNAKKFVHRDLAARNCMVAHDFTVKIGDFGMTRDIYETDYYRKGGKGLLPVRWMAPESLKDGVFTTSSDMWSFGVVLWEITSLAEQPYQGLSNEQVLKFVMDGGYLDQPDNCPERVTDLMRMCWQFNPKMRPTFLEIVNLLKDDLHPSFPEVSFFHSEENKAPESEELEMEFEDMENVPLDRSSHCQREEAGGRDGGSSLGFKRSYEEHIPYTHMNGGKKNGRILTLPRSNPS
Chain of Myosin-10 (P35580 whole entry): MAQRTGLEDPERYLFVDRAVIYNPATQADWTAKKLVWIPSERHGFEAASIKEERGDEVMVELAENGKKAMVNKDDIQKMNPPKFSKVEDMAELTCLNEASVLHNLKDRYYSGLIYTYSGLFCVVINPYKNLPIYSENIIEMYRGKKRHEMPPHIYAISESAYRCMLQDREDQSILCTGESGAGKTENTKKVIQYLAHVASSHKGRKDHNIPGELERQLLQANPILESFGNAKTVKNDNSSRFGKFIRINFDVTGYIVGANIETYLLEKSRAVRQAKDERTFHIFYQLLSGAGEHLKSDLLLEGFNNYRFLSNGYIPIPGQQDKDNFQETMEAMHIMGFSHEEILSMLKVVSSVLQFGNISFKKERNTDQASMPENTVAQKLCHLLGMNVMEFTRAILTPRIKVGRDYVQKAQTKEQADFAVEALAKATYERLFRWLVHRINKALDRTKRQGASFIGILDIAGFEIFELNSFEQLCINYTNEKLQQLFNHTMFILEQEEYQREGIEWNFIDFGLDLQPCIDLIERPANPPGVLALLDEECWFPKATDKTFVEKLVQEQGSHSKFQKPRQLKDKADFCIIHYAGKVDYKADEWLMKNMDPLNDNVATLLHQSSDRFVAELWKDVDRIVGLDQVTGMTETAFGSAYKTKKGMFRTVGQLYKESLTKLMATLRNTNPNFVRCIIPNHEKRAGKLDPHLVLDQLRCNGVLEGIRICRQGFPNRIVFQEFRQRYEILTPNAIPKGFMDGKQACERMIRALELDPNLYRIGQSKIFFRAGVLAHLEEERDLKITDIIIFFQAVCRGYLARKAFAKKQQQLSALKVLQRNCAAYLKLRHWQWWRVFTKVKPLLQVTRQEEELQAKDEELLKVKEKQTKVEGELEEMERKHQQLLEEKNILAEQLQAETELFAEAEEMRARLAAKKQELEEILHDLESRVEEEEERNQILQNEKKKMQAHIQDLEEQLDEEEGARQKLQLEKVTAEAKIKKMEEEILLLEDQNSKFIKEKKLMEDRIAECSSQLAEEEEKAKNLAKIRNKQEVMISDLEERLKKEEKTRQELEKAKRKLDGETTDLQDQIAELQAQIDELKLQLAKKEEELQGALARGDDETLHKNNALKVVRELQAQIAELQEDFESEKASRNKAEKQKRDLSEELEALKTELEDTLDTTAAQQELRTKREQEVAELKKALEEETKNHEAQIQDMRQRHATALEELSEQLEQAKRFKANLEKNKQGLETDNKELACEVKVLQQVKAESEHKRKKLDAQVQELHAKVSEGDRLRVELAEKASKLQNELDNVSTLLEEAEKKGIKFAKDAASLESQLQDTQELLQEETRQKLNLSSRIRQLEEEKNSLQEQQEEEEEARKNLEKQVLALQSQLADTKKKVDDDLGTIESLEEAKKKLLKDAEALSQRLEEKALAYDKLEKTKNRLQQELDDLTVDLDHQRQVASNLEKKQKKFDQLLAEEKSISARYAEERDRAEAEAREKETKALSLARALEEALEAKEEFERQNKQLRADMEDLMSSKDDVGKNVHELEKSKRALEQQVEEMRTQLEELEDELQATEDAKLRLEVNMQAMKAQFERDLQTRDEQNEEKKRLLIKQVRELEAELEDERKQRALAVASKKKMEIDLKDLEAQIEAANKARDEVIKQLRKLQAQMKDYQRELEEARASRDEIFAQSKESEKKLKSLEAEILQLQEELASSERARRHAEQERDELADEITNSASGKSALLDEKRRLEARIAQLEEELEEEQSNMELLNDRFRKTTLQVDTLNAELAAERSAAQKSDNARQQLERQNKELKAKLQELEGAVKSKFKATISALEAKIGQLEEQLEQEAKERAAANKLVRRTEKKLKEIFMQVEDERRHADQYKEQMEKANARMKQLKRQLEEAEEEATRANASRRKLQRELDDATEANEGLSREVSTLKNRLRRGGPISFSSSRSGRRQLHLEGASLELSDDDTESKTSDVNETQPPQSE
Chain of ATP-dependent RNA helicase DDX3X (O00571 whole entry): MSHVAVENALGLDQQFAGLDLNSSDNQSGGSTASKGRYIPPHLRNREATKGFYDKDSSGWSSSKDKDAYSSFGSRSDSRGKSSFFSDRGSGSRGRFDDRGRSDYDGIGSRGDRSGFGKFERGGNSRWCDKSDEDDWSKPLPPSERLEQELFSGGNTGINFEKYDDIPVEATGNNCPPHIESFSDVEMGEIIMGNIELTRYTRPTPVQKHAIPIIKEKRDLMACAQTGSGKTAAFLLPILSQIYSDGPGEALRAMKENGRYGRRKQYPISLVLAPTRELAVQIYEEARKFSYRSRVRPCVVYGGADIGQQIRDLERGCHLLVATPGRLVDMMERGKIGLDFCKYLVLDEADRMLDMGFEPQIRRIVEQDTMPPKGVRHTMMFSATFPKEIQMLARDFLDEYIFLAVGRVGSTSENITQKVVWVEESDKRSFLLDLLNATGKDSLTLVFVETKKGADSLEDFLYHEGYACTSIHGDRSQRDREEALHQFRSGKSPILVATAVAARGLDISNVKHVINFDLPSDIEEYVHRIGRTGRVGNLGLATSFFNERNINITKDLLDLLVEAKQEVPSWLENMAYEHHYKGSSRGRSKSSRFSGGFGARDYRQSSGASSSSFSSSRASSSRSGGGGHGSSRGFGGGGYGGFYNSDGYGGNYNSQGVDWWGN
Chain of AP2-associated protein kinase 1 (Q2M2I8 whole entry): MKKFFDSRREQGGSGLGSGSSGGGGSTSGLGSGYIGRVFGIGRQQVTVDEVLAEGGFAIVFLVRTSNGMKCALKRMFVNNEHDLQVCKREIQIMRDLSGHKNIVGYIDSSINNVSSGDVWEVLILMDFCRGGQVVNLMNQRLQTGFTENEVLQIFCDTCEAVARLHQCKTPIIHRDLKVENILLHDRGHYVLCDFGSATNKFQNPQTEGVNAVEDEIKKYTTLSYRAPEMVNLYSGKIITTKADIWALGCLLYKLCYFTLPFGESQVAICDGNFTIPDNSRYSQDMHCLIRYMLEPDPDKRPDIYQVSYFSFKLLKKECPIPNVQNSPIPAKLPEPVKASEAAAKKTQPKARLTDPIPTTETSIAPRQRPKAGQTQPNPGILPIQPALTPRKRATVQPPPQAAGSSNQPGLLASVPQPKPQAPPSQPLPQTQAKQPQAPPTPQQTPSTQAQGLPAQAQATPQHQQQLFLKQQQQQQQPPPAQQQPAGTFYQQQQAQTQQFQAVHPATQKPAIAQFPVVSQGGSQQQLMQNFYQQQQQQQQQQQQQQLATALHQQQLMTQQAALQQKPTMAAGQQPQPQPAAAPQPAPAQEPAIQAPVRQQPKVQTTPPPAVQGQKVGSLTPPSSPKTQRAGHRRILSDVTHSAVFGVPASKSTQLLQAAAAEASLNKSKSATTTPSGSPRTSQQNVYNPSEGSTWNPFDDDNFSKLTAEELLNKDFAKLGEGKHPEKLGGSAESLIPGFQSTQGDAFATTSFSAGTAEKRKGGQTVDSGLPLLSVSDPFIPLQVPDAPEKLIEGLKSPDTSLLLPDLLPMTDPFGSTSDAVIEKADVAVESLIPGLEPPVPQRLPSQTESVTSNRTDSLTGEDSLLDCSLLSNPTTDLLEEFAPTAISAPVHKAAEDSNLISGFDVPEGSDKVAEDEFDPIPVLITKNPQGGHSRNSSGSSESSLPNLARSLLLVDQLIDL

With `CNC(=O)c1cccc2cc(Oc3ccnc4cc(OCC5(N)CC5)c(OC)cc34)ccc12` [LUCITANIB] the Kd [1] was > 30 µM (inactive), the Kd [2] was > 30 µM (inactive) and the Kd [3] was > 30 µM (inactive). For the same compound, the Kd [4] was > 30 µM (inactive), the Kd [5] was > 30 µM (inactive) and the Kd [6] was > 30 µM (inactive). The Kd [7] was > 30 µM (inactive), the Kd [8] was > 30 µM (inactive) and the Kd [9] was > 30 µM (inactive). For the same compound, the Kd [10] was > 30 µM (inactive), the Kd [11] was > 30 µM (inactive) and the Kd [12] was > 30 µM (inactive). For the same compound, the Kd [13] was > 30 µM (inactive) and the Kd [14] was > 30 µM (inactive).
In the case of `C[C@@H](NC(=O)c1ncnc(N)c1Cl)c1ncc(C(=O)Nc2cc(C(F)(F)F)c(Cl)cn2)s1` [TOVORAFENIB], the Kd [1] is reported as > 30 µM (inactive), the Kd [2] is reported as > 30 µM (inactive) and the Kd [3] is reported as > 30 µM (inactive). The Kd [4] was 1.64 µM, the Kd [5] was > 30 µM (inactive) and the Kd [6] was > 30 µM (inactive). The Kd [7] was > 30 µM (inactive), the Kd [8] was > 30 µM (inactive) and the Kd [9] was > 30 µM (inactive). For the same compound, the Kd [10] was > 30 µM (inactive), the Kd [11] was > 30 µM (inactive) and the Kd [12] was > 30 µM (inactive). The Kd [13] was > 30 µM (inactive) and the Kd [14] was 1.02 µM (active).
`NC(=O)Nc1cc(-c2cccc(F)c2)sc1C(=O)N[C@H]1CCCNC1` [AZD-7762] was tested, and the Kd [1] was > 30 µM (inactive), the Kd [2] was 0.007 µM (active) and the Kd [3] was 0.073 µM (active). For the same compound, the Kd [4] was > 30 µM (inactive), the Kd [5] was > 30 µM (inactive) and the Kd [6] was > 30 µM (inactive). For the same compound, the Kd [7] was > 30 µM (inactive), the Kd [8] was > 30 µM (inactive) and the Kd [9] was > 30 µM (inactive). The Kd [10] was > 30 µM (inactive), the Kd [11] was > 30 µM (inactive) and the Kd [12] was 3.07 µM (active). The Kd [13] was 3.15 µM (active) and the Kd [14] was > 30 µM (inactive).
With `Cn1cc(-c2cnn3c(N)c(Br)c([C@@H]4CCCNC4)nc23)cn1` [SCH-900776] the Kd [1] was > 30 µM (inactive), the Kd [2] was 0.27 µM (active) and the Kd [3] was > 30 µM (inactive). The Kd [4] was 4.72 µM (active), the Kd [5] was > 30 µM (inactive) and the Kd [6] was > 30 µM (inactive). For the same compound, the Kd [7] was > 30 µM (inactive), the Kd [8] was > 30 µM (inactive) and the Kd [9] was > 30 µM (inactive). For the same compound, the Kd [10] was > 30 µM (inactive), the Kd [11] was > 30 µM (inactive) and the Kd [12] was > 30 µM (inactive). For the same compound, the Kd [13] was 0.279 µM (active) and the Kd [14] was > 30 µM (inactive).
In the case of `FC(F)(F)c1ccc(/C=C/c2nc(COc3ccc(CCCCn4ccnn4)cc3)co2)cc1` [MUBRITINIB], the Kd [1] is reported as > 30 µM (inactive), the Kd [2] is reported as > 30 µM (inactive) and the Kd [3] is reported as > 30 µM (inactive). For the same compound, the Kd [4] was > 30 µM (inactive), the Kd [5] was > 30 µM (inactive) and the Kd [6] was > 30 µM (inactive). For the same compound, the Kd [7] was > 30 µM (inactive), the Kd [8] was > 30 µM (inactive) and the Kd [9] was > 30 µM (inactive). The Kd [10] was > 30 µM (inactive), the Kd [11] was > 30 µM (inactive) and the Kd [12] was > 30 µM (inactive). For the same compound, the Kd [13] was > 30 µM (inactive) and the Kd [14] was > 30 µM (inactive).
